Assay results published in patent publication US11674962B2, “Therapeutic and diagnostic methods for cancer” (Genentech, Inc., priority 2017, dated 2023).

Key:
[1] = test system: locally advanced or metastatic non-small cell lung cancer (NSCLC); assay: POPLAR phase II clinical trial (NCT01903993): atezolizumab vs docetaxel, outcomes by bTMB score; assay type: in vivo, human; conditions: bTMB≥16, per treatment arm
Experimental: (§1) A blood-based assay was used to evaluate the association between clinical response to treatment with atezolizumab (MPDL3280A) and blood tumor mutational burden (bTMB) score in patients with non-small cell lung cancer (NSCLC) enrolled in two clinical trials, a phase II clinical trial, POPLAR (Clinical Trial ID No.: NCT01903993), and a phase III clinical trial, OAK (Clinical Trial ID No.: NCT02008227), in which atezolizumab was administered as a monotherapy.
(§2) Pre-treatment blood samples from patients with NSCLC who were enrolled in the POPLAR and/or the OAK studies, in which atezolizumab was administered as a monotherapy, were evaluated for bTMB score and/or maximum somatic allele frequency (MSAF).
The POPLAR (Clinical Trial ID No.: NCT01903993) patient population evaluated for bTMB score consisted of 273 patients. Patients were eligible for enrollment in the POPLAR study if they had locally advanced or metastatic (e.g., stage IIIB, stage IV, or recurrent) non-small cell lung cancer (NSCLC); disease progression during or following treatment with a prior platinum-containing regimen for locally advanced, unresectable/inoperable, or metastatic NSCLC, or disease recurrence within 6 months of treatment with a platinum-based adjuvant/neoadjuvant regimen; measurable disease, as defined by RECIST v1.1; and an Eastern Cooperative Oncology Group (ECOG) performance status of 0 or 1. Participants were randomized to receive either atezolizumab at a dose of 1200 mg intravenously every three weeks or docetaxel 75 mg per meter square (mg/m^2) intravenously every three weeks. Treatment with atezolizumab could be continued as long as participants were experiencing clinical benefit, i.e., in the absence of unacceptable toxicity or symptomatic deterioration attributed to disease progression.
(§3) Analysis of bTMB was performed retrospectively. Progression-free survival (PFS) was defined as the time between date of randomization and date of first documented disease progression as assessed by the investigator using RECIST v.1.1 or death from any cause, whichever occurred first. Overall survival (OS) was defined as the time between the date of randomization until death due to any cause. Treatment arms were compared for OS and PFS individually using a univariate Cox regression model without stratification in the biomarker evaluable-population (BEP) and their subgroups or using a stratified (by randomization stratification factors) Cox model in the ITT population. No multiplicity correction was applied to p-values or confidence intervals (CI). Kaplan-Meier methodology was used to estimate median OS and PFS and construct survival curves.
In the POPLAR ITT population (N=287), 273 samples were available for analysis. Of these, 6 were removed for sample contamination >1%; 9 were removed for median exon coverage <800×; and 47 were removed for low MSAF<1%.
The POPLAR BEP (N=211) includes 15 patients with EGFR mutation or ALK rearrangement, and 196 without known alterations.
(§4) To identify somatic mutations and calculate a bTMB score, whole blood samples obtained from each patient (collected in EDTA or Streck tubes) were processed through a series of spins to isolate plasma, from which cell free DNA (cfDNA) was extracted for sequencing analysis. Specifically, at least 20 ng purified cfDNA was used for library construction. Next-generation sequencing libraries using fragment barcodes and hybrid capture were constructed to analyze and sequence a pre-determined set of 394 genes that covered approximately 1.125 Mb of the exome. Specifically, purified libraries were hybrid captured using a 394-gene bait set and then further purified, pooled and loaded on an ILLUMINA® HISEQ® 4000 sequencing system. Sequenced libraries were aligned and sorted. […]

[2] = test system: locally advanced or metastatic non-small cell lung cancer (NSCLC); assay: OAK phase III clinical trial (NCT02008227): atezolizumab vs docetaxel, outcomes by bTMB score and PD-L1 IHC; assay type: in vivo, human; conditions: OAK
Experimental: as §1, §2
The OAK (Clinical Trial ID No.: NCT02008227) patient population evaluated for bTMB score consisted of 583 patients. Patients were eligible for enrollment in the OAK study if they had locally advanced or metastatic (e.g., stage IIIB, stage IV, or recurrent) NSCLC; disease progression during or following treatment with a prior platinum-containing regimen for locally advanced, unresectable/inoperable, or metastatic NSCLC, or disease recurrence within 6 months of treatment with a platinum-based adjuvant/neoadjuvant regimen; measurable disease, as defined by RECIST v1.1; and an ECOG performance status of 0 or 1. Participants were randomized to receive either atezolizumab at a dose of 1200 mg intravenously every three weeks or docetaxel 75 mg per square meter (mg/m^2) intravenously every three weeks. Treatment with atezolizumab could be continued as long as participants were experiencing clinical benefit, i.e., in the absence of unacceptable toxicity or symptomatic deterioration attributed to disease progression.
as §3
In the OAK ITT population (N=850), 797 samples were available for analysis. Of these samples, 13 were removed for sample contamination >1%; 42 were removed for median exon coverage <800×; and 100 were removed for low MSAF<1%.
The OAK BEP (N=642) included 59 patients with EGFR mutation or ALK rearrangement, and 583 without known alterations.
as §4, with “sorted. In order to accurately call variants at low allele frequencies and minimize artifacts from sequencing, PCR, or DNA damage-related errors, sequenced libraries were processed by a cfDNA computational pipeline that corrected errors via the use of fragment barcodes.” for “sorted.”

## CC(=O)O[C@@]12CO[C@@H]1C[C@H](O)[C@@]1(C)C(=O)[C@H](O)C3=C(C)[C@@H](OC(=O)[C@H](O)[C@@H](NC(=O)OC(C)(C)C)c4ccccc4)C[C@@](O)([C@@H](OC(=O)c4ccccc4)[C@H]21)C3(C)C [docetaxel]
[1]
  median OS: 7.4 months
  median PFS: 2.9 months
[2]; bTMB≥16, per treatment arm
  median OS: 6.8 months
[2]; bTMB≥16 patients, per treatment arm
  best overall response rate: 10%
